Columns and labels:
GSK3α = GSK3α (Homo sapiens (Human), UniProt P49840); assay: Enzyme binding assay (Kinomescan) GSK3α; details: read-out: % Inhibition for kinase binding at 500 nM GSK3α
Experimental: (§1) The kinase enzyme binding activities of compounds disclosed herein were determined using a proprietary assay which measures active site-directed competition binding to an immobilized ligand (Fabian, M. A. et al., Nature Biotechnol., 2005, 23:329-336). These assays were conducted by DiscoverX (formerly Ambit; San Diego, Calif.). The percentage inhibition produced by incubation with a test compound is calculated relative to the non-inhibited control.

HCK = HCK (Homo sapiens (Human), UniProt P08631); assay: Enzyme binding assay (Kinomescan) HCK; details: read-out: % Inhibition for kinase binding at 500 nM HCK
Experimental: as §1

p38 MAPKγ = p38 MAPKγ (Homo sapiens (Human), UniProt P53778); assay: Enzyme binding assay (Kinomescan) p38 MAPKγ; details: read-out: % Inhibition for kinase binding at 500 nM p38 MAPKγ
Experimental: (§2) These assays were conducted by DiscoverX (formerly Ambit; San Diego, Calif.). The percentage inhibition produced by incubation with a test compound is calculated relative to the non-inhibited control.

p38 MAPKα = p38 MAPKα (Homo sapiens (Human), UniProt Q16539); assay: Enzyme binding assay (Kinomescan) p38 MAPKα; details: read-out: % Inhibition for kinase binding at 500 nM p38 MAPKα
Experimental: as §1

cSrc = cSrc (Homo sapiens (Human), UniProt P12931); assay: Enzyme binding assay (Kinomescan) cSrc; details: read-out: % Inhibition for kinase binding at 500 nM cSrc
Experimental: as §2

Syk = Syk (Homo sapiens (Human), UniProt P43405); assay: Enzyme binding assay (Kinomescan) Syk; details: read-out: % Inhibition for kinase binding at 500 nM Syk
Experimental: as §1

B-Raf = B-Raf (Homo sapiens (Human), UniProt P15056); assay: Enzyme binding assay (Kinomescan) B-Raf; details: read-out: % Inhibition for kinase binding at 500 nM B-Raf
Experimental: as §2

Chain of GSK3α (P49840 whole entry): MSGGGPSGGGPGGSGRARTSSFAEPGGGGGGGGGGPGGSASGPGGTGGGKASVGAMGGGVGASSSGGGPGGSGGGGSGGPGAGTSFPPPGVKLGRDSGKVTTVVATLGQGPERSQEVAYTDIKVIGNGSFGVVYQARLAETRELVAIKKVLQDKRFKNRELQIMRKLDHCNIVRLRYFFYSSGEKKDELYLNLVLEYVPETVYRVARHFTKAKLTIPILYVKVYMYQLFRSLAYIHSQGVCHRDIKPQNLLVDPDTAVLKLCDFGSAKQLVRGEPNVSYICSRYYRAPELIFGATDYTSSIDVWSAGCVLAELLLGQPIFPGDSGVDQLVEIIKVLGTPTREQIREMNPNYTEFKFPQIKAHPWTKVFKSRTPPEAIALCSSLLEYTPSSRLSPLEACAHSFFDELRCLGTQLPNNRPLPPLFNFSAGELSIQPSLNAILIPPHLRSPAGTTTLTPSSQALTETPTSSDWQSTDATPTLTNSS
Chain of p38 MAPKγ (P53778 whole entry): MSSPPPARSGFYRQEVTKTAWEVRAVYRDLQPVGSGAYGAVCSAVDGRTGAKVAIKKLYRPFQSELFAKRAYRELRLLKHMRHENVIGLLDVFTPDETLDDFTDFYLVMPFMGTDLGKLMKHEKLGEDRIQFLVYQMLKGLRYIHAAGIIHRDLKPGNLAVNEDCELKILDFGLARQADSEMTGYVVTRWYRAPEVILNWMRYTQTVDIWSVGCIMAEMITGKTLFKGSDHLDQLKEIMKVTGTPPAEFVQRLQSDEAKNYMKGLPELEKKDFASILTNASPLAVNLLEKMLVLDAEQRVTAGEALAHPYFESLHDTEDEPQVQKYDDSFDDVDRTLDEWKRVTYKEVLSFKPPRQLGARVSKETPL
Chain of cSrc (P12931 whole entry, looked up): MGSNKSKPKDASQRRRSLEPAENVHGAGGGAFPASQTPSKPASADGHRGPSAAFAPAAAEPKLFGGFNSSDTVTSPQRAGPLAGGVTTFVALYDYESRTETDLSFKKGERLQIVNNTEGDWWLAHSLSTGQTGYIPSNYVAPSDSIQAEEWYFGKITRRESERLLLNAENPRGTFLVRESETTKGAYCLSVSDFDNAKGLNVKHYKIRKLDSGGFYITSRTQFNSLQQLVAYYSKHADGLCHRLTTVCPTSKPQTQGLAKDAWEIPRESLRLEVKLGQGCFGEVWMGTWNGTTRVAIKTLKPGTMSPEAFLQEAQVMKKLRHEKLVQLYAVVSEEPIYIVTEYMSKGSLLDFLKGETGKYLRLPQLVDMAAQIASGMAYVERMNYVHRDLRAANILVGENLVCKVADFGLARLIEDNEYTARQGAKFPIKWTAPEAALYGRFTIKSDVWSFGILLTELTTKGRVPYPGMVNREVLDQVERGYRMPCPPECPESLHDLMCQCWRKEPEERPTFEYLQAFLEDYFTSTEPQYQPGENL
Chain of p38 MAPKα (Q16539 whole entry): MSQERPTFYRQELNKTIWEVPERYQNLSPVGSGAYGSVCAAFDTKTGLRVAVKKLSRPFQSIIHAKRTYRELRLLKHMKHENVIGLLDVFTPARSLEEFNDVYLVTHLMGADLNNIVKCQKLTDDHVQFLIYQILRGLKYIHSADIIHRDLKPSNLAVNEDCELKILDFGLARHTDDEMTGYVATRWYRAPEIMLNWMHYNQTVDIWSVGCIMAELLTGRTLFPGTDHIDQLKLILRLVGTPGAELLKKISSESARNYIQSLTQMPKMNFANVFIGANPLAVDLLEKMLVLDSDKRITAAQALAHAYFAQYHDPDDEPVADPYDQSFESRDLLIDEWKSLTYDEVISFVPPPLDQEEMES
Chain of HCK (P08631 22-526): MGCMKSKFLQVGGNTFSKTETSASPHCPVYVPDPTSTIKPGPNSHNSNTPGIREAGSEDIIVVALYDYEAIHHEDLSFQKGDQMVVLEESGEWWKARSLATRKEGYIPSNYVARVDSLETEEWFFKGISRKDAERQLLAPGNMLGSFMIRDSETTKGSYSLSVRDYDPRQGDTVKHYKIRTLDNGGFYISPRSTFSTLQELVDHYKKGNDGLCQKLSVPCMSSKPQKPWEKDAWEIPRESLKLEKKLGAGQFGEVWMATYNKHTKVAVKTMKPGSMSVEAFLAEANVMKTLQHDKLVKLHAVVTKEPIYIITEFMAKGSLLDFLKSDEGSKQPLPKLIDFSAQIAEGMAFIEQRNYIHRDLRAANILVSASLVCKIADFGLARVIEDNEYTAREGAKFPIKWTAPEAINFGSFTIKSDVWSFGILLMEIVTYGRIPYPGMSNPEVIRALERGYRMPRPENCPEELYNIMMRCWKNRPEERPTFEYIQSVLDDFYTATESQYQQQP
Chain of B-Raf (P15056 whole entry): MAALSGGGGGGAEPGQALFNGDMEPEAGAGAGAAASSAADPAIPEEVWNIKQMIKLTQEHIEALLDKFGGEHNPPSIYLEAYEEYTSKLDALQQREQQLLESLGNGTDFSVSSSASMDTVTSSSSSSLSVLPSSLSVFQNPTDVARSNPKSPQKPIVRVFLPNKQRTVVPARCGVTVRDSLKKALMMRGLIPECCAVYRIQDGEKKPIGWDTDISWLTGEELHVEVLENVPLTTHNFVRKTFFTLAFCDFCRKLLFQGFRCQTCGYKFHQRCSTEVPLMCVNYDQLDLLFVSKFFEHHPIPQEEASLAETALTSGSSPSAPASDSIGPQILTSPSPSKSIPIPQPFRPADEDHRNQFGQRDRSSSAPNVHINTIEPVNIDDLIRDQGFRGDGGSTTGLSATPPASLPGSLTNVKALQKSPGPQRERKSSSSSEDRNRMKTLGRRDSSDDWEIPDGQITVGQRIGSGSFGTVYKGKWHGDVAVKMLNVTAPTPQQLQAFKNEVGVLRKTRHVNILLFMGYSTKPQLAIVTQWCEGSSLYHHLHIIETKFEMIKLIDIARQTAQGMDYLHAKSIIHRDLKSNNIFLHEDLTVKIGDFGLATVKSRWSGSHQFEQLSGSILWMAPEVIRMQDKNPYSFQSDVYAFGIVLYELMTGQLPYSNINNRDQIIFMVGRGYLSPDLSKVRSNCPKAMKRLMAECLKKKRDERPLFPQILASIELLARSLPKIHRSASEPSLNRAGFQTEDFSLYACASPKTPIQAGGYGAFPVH

- inhibition at 0.5 µM (GSK3α): 31%
- inhibition at 0.5 µM (HCK): 100%
- inhibition at 0.5 µM (p38 MAPKγ): 52%
- inhibition at 0.5 µM (p38 MAPKα): 66%
- inhibition at 0.5 µM (cSrc): 100%
- inhibition at 0.5 µM (Syk): 100%
- inhibition at 0.5 µM (B-Raf): 0%
SMILES: CC(C)(C)c1cc(NC(=O)Nc2ccc(Oc3ccnc(Nc4ccc5[nH]ncc5c4)n3)c3ccccc23)n(-c2ccc(OCCN3CCOCC3)cc2)n1 [Example 12, 1-(4-((2-((1H-Indazol-5-yl)amino)pyrimidin-4-yl)oxy)naphthalen-1-yl)-3-(3-(tert-butyl)-1-(4-(2-morpholinoethoxy)phenyl)-1H-pyrazol-5-yl)urea]

— patent US9249125B2, “Pyrazole derivatives as p38 MAP inhibitors” (RESPIVERT LIMITED, priority 2012, dated 2016)
